According to patent US20240199552A1, “AMIDE COMPOUND AND USE THEREOF” (Metisa Biotechnology Co., Ltd, priority 2021, published 2024):
Where two headings read alike, the source gives them in different places.

Columns and labels:
Format in all cases: in vivo
Mythimna separata = assay: Insecticidal activity against Mythimna separata, Airbrush spray on maize leaf pieces; settings: 72 h, 0.05 mg/L, 3 days after the administration, 3rd-instar larvae, read-out: mortality rate against Mythimna separata
Protocol: (§1) After the compound to be determined was dissolved in a mixed solvent of acetone/methanol (1:1), it was diluted with water containing 0.1% (wt) Tween-80 to a desired concentration.
(§2) Mythimna separata, Diamondback moth, Chilo suppressalis, Spodoptera exigua, Myzus persicae, and Franklinella occidentalis were used as targets, and the activity was tested by an Airbrush spray method.
Determination method: maize leaves were cut into 2 cm leaf pieces, and the front and back of each leaf piece were sprayed under an Airbrush spray treatment pressure of 10 psi (approximate to 0.7 kg/cm^2) and with a spray volume of 0.5 mL. After drying in the shade, 10 3rd-instar larvae were inoculated for each treatment, and each treatment was repeated for 3 times. After the treatment, the leaf pieces were put into an observation chamber at 25° C. and with a relative humidity of 60% to 70%, and the number of living larvae was investigated 3 days after the administration of the compounds, and the mortality rates were calculated.

Diamondback moth = assay: Insecticidal activity against Diamondback moth, Airbrush spray on cabbage leaf discs; settings: Plutella xylostella, foliar, 72 h; for mortality at 1.25 µg/mL: 1.25 mg/L, 3rd-instar larvae, read-out: mortality rate against Diamondback moth; for mortality at 10 µg/mL: 10 mg/L, read-out: Mortality rate (%, 3 days after the administration) 10 mg/L; for mortality at 0.156 µg/mL: read-out: Mortality rate (%, 3 days after the administration) 0.156 mg/L; for mortality at 0.313 µg/mL: read-out: Mortality rate (%, 3 days after the administration) 0.313 mg/L
Protocol: as §1, §2
Determination method: cabbage leaves were formed into leaf discs having a diameter of 2 cm using a puncher, and the front and back of each leaf disc were sprayed under an Airbrush spray treatment pressure of 10 psi (approximate to 0.7 kg/cm^2) and with a spray volume of 0.5 mL. After drying in the shade, 10 3rd-instar larvae were inoculated for each treatment, and each treatment was repeated for 3 times. After the treatment, the leaf discs were placed into an observation chamber at 25° C. and with a relative humidity of 60% to 70%, and the number of living larvae was investigated 3 days after the administration of the compounds, and the mortality rates were calculated.

Chilo suppressalis = assay: Insecticidal activity against Chilo suppressalis, sprayed rice stems; settings: 72 h, 0.625 mg/L, 3 days after the administration, 3rd-instar larvae, read-out: mortality rate against Chilo suppressalis
Protocol: as §1, §2
Determination method: 1) Preparation of rice seedlings: rice was cultured in a plastic small cup with a diameter of 4.5 cm and a height of 4 cm in a constant temperature room (the temperature was 26-28° C., the relative humidity was about 60-80%, and the illumination was 16hL:8hD), when the rice grown to a 4-5 leaf stage, robust and uniformly grown rice seedlings were selected for pharmaceutical treatment, and 3 replicates were set for each treatment. 2) Preparation of test insects: 3rd-instar larvae of Chilo suppressalis were continuously reared indoors. 3) Rice stems were sprayed and insects were introduced. A spray method was used to treat whole rice seedlings with uniform spray, and each treatment was 15 mL. Blank controls were treated firstly, and then the above operation was repeated in an order of experimental concentrations from low to high. After the spray treatment of the rice seedlings, they were placed in the shade to air-dry drug liquid, about 5 cm of the stem from a basal part of the stem was cut and fed to the test insects. A glass culture dish with a diameter of 90 mm was prepared, filter paper was placed on the bottom of the dish, then water was added to moisturize. About 5 rice stems were placed in each dish, 10 larvae were introduced, and the culture dish was closed with non-woven fabric and placed in the constant-temperature room for culture. 3 days after the administration, the number of residual live insects was investigated.

Spodoptera exigua = assay: Insecticidal activity against Spodoptera exigua, leaf disc dipping feeding method; settings: foliar, 72 h, 0.625 mg/L, 3 days after the administration, read-out: mortality rate against Spodoptera exigua
Protocol: After the compound to be determined was dissolved in a mixed solvent of acetone/methanol (1:1), it was diluted with water containing 0.1% (wt) Tween-80 to a desired concentration. […]
Determination method: the activity was tested by using a leaf disc dipping feeding method. Leaf discs were dipped in a drug solution for 10 s, and placed in a culture dish after being air-dried, there were 4 discs in each dish, and a filter paper was placed in the culture dish for moisture retention. 10 test insects of Spodoptera exigua were introduced to each dish, with 3 replicates.
They were placed in a light incubator for culture at a temperature of 25° C. and an illumination of 14hL:10hD. On the 1st, 2nd, and 3rd day after the administration, the number of dead Spodoptera exigua was investigated and the mortality rate was calculated.

Myzus persicae = assay: Insecticidal activity against Myzus persicae, Airbrush spray on cabbage leaves; settings: 50 mg/L, after 48 h, read-out: mortality rate against Myzus persicae
Protocol: as §1, §2
Determination method: a culture dish with a diameter of 6 cm was taken, the bottom of the dish was covered by a layer of filter paper, and an appropriate amount of tap water was added to moisturize the paper. Cabbage leaves with an appropriate size (the diameter was about 3 cm) and 15-30 aphids grown were cut from cabbage plants used to culture Myzus persicae, winged aphids and aphids on the front of the leave were removed, and it was placed in the culture dish while the back of the leave was upward. The pressure of airbrush spray treatment was 10 psi (about 0.7 kg/cm^2), the liquid spray volume was 0.5 mL, and there were 3 replicates for each treatment. After the treatment, the leave was put into an observation room for culture at 25° C. and a relative humidity of 60-70%. After 48 h, the number of live insects was investigated and the mortality rate was calculated.

cat flea = assay: Insecticidal experiment on cat flea, thin film in culture dish; settings: Ctenocephalides felis, 72 h, read-out: mortality rate, cat flea
Protocol: 4 mg of the compound to be determined was dissolved in 40 mL of acetone to obtain an acetone solution with a concentration of 100 mg/L. 400 μL of the drug solution was applied on the bottom and sides of a culture dish with an inner diameter of 5.3 cm, then after acetone was evaporated, a thin film of the compound of the present invention was made on the inner wall of the culture dish. The inner wall of the culture dish used was 40 cm^2, and the treatment dosage was 1 μg/cm^2. 10 adult cat fleas (mixed male and female) were put into the dish, and it was stored in a constant-temperature room at 25° C. after being covered. The number of dead insects after 72 h was checked and the mortality rate was calculated. The experiment was repeated for 3 times.

[1] = system: Franklinella occidentalis; assay: Insecticidal activity against Franklinella occidentalis nymphs, sprayed bean leaves
Protocol: as §1, §2
Determination method: fresh bean leaves cultivated in a greenhouse were selected, a hand-held Airbrush sprayer was used to spray uniformly, each treatment was 1 mL, and after being air-dried naturally, the leaves were placed in a finger-shaped tube. Neat and healthy Franklinella occidentalis nymphs were introduced, there were 15 nymphs for each treatment, 3 replicates were set for the experiment, and water treatment was set as a blank control. After the treatment, the leaves were put into an indoor culture room for culture at 24° C., a relative humidity of 60-70%, and natural light. After 72 h, the number of live insects was investigated and the mortality rate was calculated.

[2] = 3 days after the administration
[3] = 3 days after the administration, Diamondback moth
[4] = 0.156 mg/L, 3 days after the administration, Diamondback moth
[5] = 0.313 mg/L, 3 days after the administration, Diamondback moth

Compound | mortality at 0.05 µg/mL (Mythimna separata) | mortality at 1.25 µg/mL (Diamondback moth; [2]) | mortality at 10 µg/mL (Diamondback moth; [3]) | mortality at 0.625 µg/mL (Chilo suppressalis) | mortality at 0.625 µg/mL (Spodoptera exigua) | mortality at 50 µg/mL (Myzus persicae) | mortality at 1 µg/cm2 (cat flea) | Mortality rate (%, 3 days after the administration) 10 mg/L [1] | Mortality rate (%, 3 days after the administration) 100 mg/L [1] | other results
C=CCN(C(=O)c1ccccc1)c1cccc(C(=O)Nc2c(I)cc(C(F)(C(F)(F)F)C(F)(F)F)cc2C(F)(F)F)c1F [Compound 4] | > 90% | > 90% | 100% | > 90% | > 90% | > 90% | > 90% |  |  | 
C=CCN(C(=O)c1ccc(C#N)cc1)c1cccc(C(=O)Nc2c(Br)cc(C(F)(C(F)(F)F)C(F)(F)F)cc2C(F)(F)F)c1F [Compound 11] | > 90% | > 90% | 100% | > 90% | > 90% | > 90% | > 90% |  |  | 
C=CCN(C(=O)c1ccc(C#N)cc1)c1cccc(C(=O)Nc2c(I)cc(C(F)(C(F)(F)F)C(F)(F)F)cc2C(F)(F)F)c1F [Compound 12] | > 90% | > 90% | 100% | > 90% | > 90% | > 90% | > 90% |  |  | 
C=CCN(C(=O)c1ccc(C#N)nc1)c1cccc(C(=O)Nc2c(Br)cc(C(F)(C(F)(F)F)C(F)(F)F)cc2C(F)(F)F)c1F [Compound 23] | > 90% | > 90% | 100% | > 90% | > 90% | > 90% | > 90% |  |  | 
C=CCN(C(=O)c1ccc(C#N)nc1)c1cccc(C(=O)Nc2c(I)cc(C(F)(C(F)(F)F)C(F)(F)F)cc2C(F)(F)F)c1F [Compound 24] | > 90% | > 90% | 100% | > 90% | > 90% | > 90% | > 90% |  |  | 
C=CCN(C(=O)c1ccccc1)c1cccc(C(=O)Nc2c(C)cc(C(F)(C(F)(F)F)C(F)(F)F)cc2C)c1 [KC1, reference compound] |  |  | 0% |  |  |  |  |  |  | 
C#CCN(C(=O)c1ccccc1)c1cccc(C(=O)Nc2c(C)cc(C(F)(C(F)(F)F)C(F)(F)F)cc2C)c1 [KC2, reference compound] |  |  | 0% |  |  |  |  |  |  | 
CN(C(=O)c1ccccc1)c1cccc(C(=O)Nc2c(Br)cc(C(F)(C(F)(F)F)C(F)(F)F)cc2C(F)(F)F)c1F [KC3, broflanilide, reference compound] |  |  |  |  |  |  |  | 31.11% | 57.78% | mortality at 0.156 µg/mL (Diamondback moth): 50%; mortality at 0.313 µg/mL (Diamondback moth): 93.3%
CN(C(=O)c1ccc(F)cc1)c1cccc(C(=O)Nc2c(Br)cc(C(F)(C(F)(F)F)C(F)(F)F)cc2C(F)(F)F)c1F [KC4, reference compound] |  |  |  |  |  |  |  | 40.00% | 62.22% | mortality at 0.156 µg/mL (Diamondback moth; [4]): 60%; mortality at 0.313 µg/mL (Diamondback moth; [5]): 100%
CN(C(=O)c1ccc(F)cc1)c1cccc(C(=O)Nc2c(I)cc(C(F)(C(F)(F)F)C(F)(F)F)cc2C(F)(F)F)c1F [KC5, reference compound] |  |  |  |  |  |  |  | 28.89% | 51.11% | mortality at 0.156 µg/mL (Diamondback moth; [4]): 73.3%; mortality at 0.313 µg/mL (Diamondback moth; [5]): 100%
O=C(Nc1cccc(C(=O)Nc2c(I)cc(C(F)(C(F)(F)F)C(F)(F)F)cc2C(F)(F)F)c1F)c1ccc(F)nc1 [KC6, reference compound] |  |  |  |  |  |  |  | 57.78% | 77.78% | mortality at 0.156 µg/mL (Diamondback moth): 46.7%; mortality at 0.313 µg/mL (Diamondback moth): 90%
CN(C(=O)c1ccc(F)nc1)c1cccc(C(=O)Nc2c(Br)cc(C(F)(C(F)(F)F)C(F)(F)F)cc2C(F)(F)F)c1F [KC7, reference compound] |  |  |  |  |  |  |  | 53.33% | 80.00% | mortality at 0.156 µg/mL (Diamondback moth; [4]): 56.7%; mortality at 0.313 µg/mL (Diamondback moth; [5]): 100%
CN(C(=O)c1ccc(F)nc1)c1cccc(C(=O)Nc2c(I)cc(C(F)(C(F)(F)F)C(F)(F)F)cc2C(F)(F)F)c1F [KC8, reference compound] |  |  |  |  |  |  |  | 53.33% | 82.22% | mortality at 0.156 µg/mL (Diamondback moth; [4]): 53.3%; mortality at 0.313 µg/mL (Diamondback moth; [5]): 86.7%
C=CCN(C(=O)c1ccccc1)c1cccc(C(=O)Nc2c(C)cc(C(F)(C(F)(F)F)C(F)(F)F)cc2C)c1F [KC9, reference compound] |  |  | 100% |  |  |  |  |  |  | 
C#CCN(C(=O)c1ccccc1)c1cccc(C(=O)Nc2c(C)cc(C(F)(C(F)(F)F)C(F)(F)F)cc2C)c1F [KC10, reference compound] |  |  | 100% |  |  |  |  |  |  | 
